Results taken from US5192784A, “Etanidazole injectable solution” (Du Pont Merck Pharmaceutical Company, priority 1992, dated 1993).
Converted amounts (≈) assume the structure as drawn. Like-named read-outs stand apart in the source and are kept apart here.

Legend:
Format in all cases: physicochemical
[1] = Effect of ionic strength on rate of decomposition in 0.1M acetate, pH 5.0, 80° C.
Protocol: The k values shown in Tables 1-5 and FIG. 1 should be multipled by a factor of 2.303 to provide the actual k value.
The chemical stability of etanidazole was evaluated in solutions of varying composition stored at 80° C. Etanidazole was placed into suitable containers and sufficient buffer was added to result in a 1 mg/ml solution. A constant ionic strength of 0.3 was maintained with potassium chloride. All solutions were prepared in triplicate. The solution was divided into 2 ml sealed glass vials and was placed into cardboard storage boxes to protect the compound from light. At appropriate intervals, samples were removed from the stability chamber and cooled to room temperature. An aliquot of the sample was diluted with mobile phase containing internal standard prior to HPLC analysis. For those pH conditions where degradation was rapid, the sample aliquot was immediately quenched to neutral pH and room temperature.
Data were analyzed using methods as described by Martin et al. in "Physical Pharmacy", 3rd ed, pp 352-395 (1983).
The impact of the ionic strength of the buffer system on the rate of decomposition was examined in 0.1M acetate, pH 5.0, at 80° C. Ionic strengths of 0.15, 0.30 and 0.60 were employed.

[2] = Effects of additives on apparent solubility / crystallization of etanidazole solutions; details: for time to formation of crystalline material: excess or 150 mg/ml
Protocol: The effects of additives on the apparent solubility of etanidazole were evaluated. […] Possible effects of additives are to inhibit the crystallization of etanidazole hydrate and to solubilize etanidazole hydrate.
Solutions were mixed by rotating end-to-end for 72 hours at room temperature. […] These were placed in 4° C. storage. […] In the case of solutions containing 1% ethanolamine or 0.1% diethanolamine as additives and excess or 150 mg/ml etanidazole, crystalline material had found within 24 hours at room temperature, but the 50 mg/ml and 100 mg/ml solutions remained clear at room temperature for 72 hours. These samples were placed at 4° C. […] After 2 months at 4° C., 1 of the 3 vials remained free of crystals. The 50 mg/ml etanidazole solution with 0.1% diethanolamine remained clear for at least 2 months at 4° C.

[3] = Equilibrium solubility of etanidazole in 0.05M acetate or citrate buffers at pH 4.0 with additives; details: for solubility: mean ± SD, read-out: Solubility at 4° C.
Protocol: Equilibrium solubility of etanidazole in 0.05M acetate or citrate buffers at pH 4.0 and the effects of additives were determined.

kobs, observed first-order rate constant ([1]; ionic strength 0.15, 0.1M acetate pH 5.0, 80° C.): 0.0059 ± 0.000108 day⁻¹
kobs, observed first-order rate constant ([1]; ionic strength 0.30, 0.1M acetate pH 5.0, 80° C.): 0.00516 ± 0.000104 day⁻¹
kobs, observed first-order rate constant ([1]; ionic strength 0.60, 0.1M acetate pH 5.0, 80° C.): 0.00518 ± 0.000306 day⁻¹
time solution remained clear ([2]; 0.1% diethanolamine, 50 mg/ml, 4° C.): at least 2 months
time solution remained clear ([2]; 0.1% diethanolamine, 50 mg/ml, room temperature): 72 h
vials that remained free of crystals ([2]; 0.1% diethanolamine, 100 mg/ml, 4° C., after 2 months): 1 of the 3
vials showing crystallization ([2]; 0.1% diethanolamine, 100 mg/ml, 4° C., within 24 hours): 1 of 3
time solution remained clear ([2]; 0.1% diethanolamine, 100 mg/ml, room temperature): 72 h
time to formation of crystalline material ([2]; 0.1% diethanolamine, room temperature): ≤ 24 h
time solution remained clear ([2]; 1% ethanolamine, 50 mg/ml, 4° C.): at least 1 month
time solution remained clear ([2]; 1% ethanolamine, 50 mg/ml, room temperature): 72 h
time to crystallization ([2]; 1% ethanolamine, 100 mg/ml, 4° C.): ≤ 24 h
time solution remained clear ([2]; 1% ethanolamine, 100 mg/ml, room temperature): 72 h
time to formation of crystalline material ([2]; 1% ethanolamine, room temperature): ≤ 24 h
time solution remained clear ([2]; 1% imidazole, 50 mg/ml, 4° C. (up to)): up to 1 month
time solution remained clear ([2]; 1% imidazole, 100 mg/ml, 4° C. (up to)): up to 1 month
time to crystal formation ([2]; 1% imidazole, 150 mg/ml, 4° C.): ≤ 2 h
appearance of solution ([2]; 1% imidazole, up to 150 mg/ml etanidazole, room temperature, 72 hours): remained clear and free of particulates
solubility ([3]; 0.05m acetate buffer, aqueous buffer, acetate 0.05M pH 4.0, no additive): 83.4 ± 26.3 mg/mL (≈ 389 mM)
solubility ([3]; 0.05m acetate buffer, acetate 0.05M pH 4.0, 0.065% Imidazole): 64.8 ± 32.1 mg/mL (≈ 303 mM)
solubility ([3]; 0.05m acetate buffer, acetate 0.05M pH 4.0, 0.13% Ethylenediamine): 54.8 ± 30.9 mg/mL (≈ 256 mM)
solubility ([3]; 0.05m citrate buffer, aqueous buffer, citrate 0.05M pH 4.0, no additive): 36.6 ± 6.4 mg/mL (≈ 171 mM)
solubility ([3]; 0.05m citrate buffer, citrate 0.05M pH 4.0, 0.065% Imidazole): 95.4 ± 3.7 mg/mL (≈ 445 mM)
solubility ([3]; 0.05m citrate buffer, citrate 0.05M pH 4.0, 0.13% Ethylenediamine): 61.5 ± 33.9 mg/mL (≈ 287 mM)
SMILES: O=C(Cn1ccnc1[N+](=O)[O-])NCCO [Etanidazole]
effect of ionic strength on degradation rate ([1]; 0.15, 0.30 and 0.60, 0.1M acetate pH 5.0, 80° C.): negligible effect on the degradation rate
solid form of excess solid ([2]; 1% imidazole and excess etanidazole, 72 hours, room temperature): appeared to have been converted to etanidazole hydrate
effect of additives on etanidazole solutions ([2]; imidazole, ethanolamine, diethanolamine, room temperature or 4° C.): these additives stabilize etanidazole solutions, inhibiting crystal formation
effect of imidazole on etanidazole solubility ([3]; citrate buffer, pH 4.0, 4° C.): Imidazole increased etanidazole solubility in citrate buffer
